From patent US20090124672A1 (priority 2007, published 2009)

Target: T1, hALDH2 (recombinant human mitochondria ALDH) (Homo sapiens, UniProt P05091)
T1 sequence (P05091 18-517): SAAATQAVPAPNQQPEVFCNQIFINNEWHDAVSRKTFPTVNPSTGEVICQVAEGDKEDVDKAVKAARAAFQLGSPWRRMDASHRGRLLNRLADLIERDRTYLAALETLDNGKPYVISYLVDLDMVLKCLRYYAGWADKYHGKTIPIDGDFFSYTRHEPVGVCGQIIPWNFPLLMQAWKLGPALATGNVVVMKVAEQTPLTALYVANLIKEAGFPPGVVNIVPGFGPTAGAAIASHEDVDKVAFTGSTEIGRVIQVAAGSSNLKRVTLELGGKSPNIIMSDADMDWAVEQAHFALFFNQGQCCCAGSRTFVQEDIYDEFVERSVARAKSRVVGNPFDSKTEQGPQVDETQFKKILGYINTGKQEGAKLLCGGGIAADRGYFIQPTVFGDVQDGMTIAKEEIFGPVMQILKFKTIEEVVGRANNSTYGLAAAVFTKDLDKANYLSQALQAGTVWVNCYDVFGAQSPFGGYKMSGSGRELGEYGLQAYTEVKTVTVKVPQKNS
Test: ALDH2 inhibition assay (NADH formation, formaldehyde substrate)
Assay type: biochemical
Settings: for inhibition at 1 µM: read-out: hALDH2 inhibition (IC50 hALDH2 column); for inhibition at 1 µM / hALDH2 inhibition (IC50 hALDH2 column): at 1 μM
Description: ALDH2 inhibition assays were performed in sodium phosphate buffer (50 mM, pH 7.4) containing 1.2 mM NAD^+ (Sigma N7004), 1 nM hALDH2 (recombinant human mitochondria ALDH), various concentrations of test compounds (from 0.03 nM to 1000 nM), and 0.15 mM freshly prepared formaldehyde solution (Ladd Research 20295). Reactions were initiated by the addition of formaldehyde and rates were recorded by monitoring NADH formation in a temperature controlled (25° C.) FluoroMax-2 Fluorimeter with excitation and emission wavelengths set at 340 and 460 nm, respectively. […] Normally, IC50 values were determined by fitting concentration-inhibition data to sigmoidal dose-response curves with two-floating parameters: IC50 and Hill coefficient. When tight binding situation was suspected, apparent Ki values were estimated by fitting dose-response data to Morrison's equation [Methods in Enzymology 63, 437-467, 1979].

Row | SMILES | IC50 [nM] | further results
1 | O=c1c(-c2ccc(O)cc2)coc2cc(OCc3noc(-c4cc(C(F)(F)F)cc(C(F)(F)F)c4)n3)ccc12 [PT-39, 7-({5-[3,5-bis(trifluoromethyl)phenyl](1,2,4-oxadiazol-3-yl)}methoxy)-3-(4-hydroxyphenyl)chromen-4-one] | 130 | 
2 | N#Cc1cccc(-c2nc(COc3ccc4c(=O)c(-c5ccc(O)cc5)coc4c3)no2)c1 [PT-40, 3-(3-{[3-(4-hydroxyphenyl)-4-oxochromen-7-yloxy]methyl}-1,2,4-oxadiazol-5-yl)benzenecarbonitrile] | 22 | 
3 | O=C(O)c1cccc(-c2nc(COc3ccc4c(=O)c(-c5ccc(O)cc5)coc4c3)no2)c1 [PT-41, 3-(3-{[3-(4-hydroxyphenyl)-4-oxochromen-7-yloxy]methyl}-1,2,4-oxadiazol-5-yl)benzoic acid] | 10 | 
4 | O=c1c(-c2ccc(O)cc2)coc2cc(OCc3noc(-c4cccc(F)c4)n3)ccc12 [PT-42, 7-{[5-(3-fluorophenyl)(1,2,4-oxadiazol-3-yl)]methoxy}-3-(4-hydroxyphenyl)chromen-4-one] | 62 | 
5 | O=c1c(-c2ccc(O)cc2)coc2cc(OCc3nc(-c4ccccc4)no3)ccc12 [PT-43, 3-(4-hydroxyphenyl)-7-[(3-phenyl(1,2,4-oxadiazol-5-yl))methoxy]chromen-4-one] | 470 | 
6 | O=c1c(-c2ccc(O)cc2)coc2cc(OCc3nc(-c4ccc(Cl)cc4)no3)ccc12 [PT-44, 3-(4-hydroxyphenyl)-7-({3-[4-chlorophenyl](1,2,4-oxadiazol-5-yl)}methoxy)chromen-4-one] | 270 | 
7 | O=c1c(-c2ccc(OCc3ccc(C(F)(F)F)nc3)cc2)coc2cc(OCc3cncc(C(F)(F)F)c3)ccc12 [PT-46, 7-{[5-(trifluoromethyl)(3-pyridyl)]methoxy}-3-(4-{[6-(trifluoromethyl)(3-pyridyl)]methoxy}phenyl)chromen-4-one] |  | inhibition at 1 µM: 10%
8 | CS(=O)(=O)Nc1ccc(-c2coc3cc(OCc4noc(-c5ccc(F)cc5)n4)ccc3c2=O)cc1 [PT-48, 7-{[5-(4-fluorophenyl)(1,2,4-oxadiazol-3-yl)]methoxy}-3-{4-[(methylsulfonyl)amino]-phenyl}chromen-4-one] | 140 | 
9 | O=C(O)c1cnc(COc2ccc3c(=O)c(-c4ccc(O)cc4)coc3c2)o1 [PT-49, 2-{[3-(4-hydroxyphenyl)-4-oxochromen-7-yloxy]methyl}-1,3-oxazole-5-carboxylic acid] | 16 | 
10 | CO/N=C(\N)c1ccc(-c2coc3cc(OCc4cccc(C(=O)OC)c4)ccc3c2=O)cc1 [PT-50, methyl 3-({3-[4-((1Z)-1-amino-2-methoxy-2-azavinyl)phenyl]-4-oxochromen-7-yloxy}methyl)benzoate] |  | inhibition at 1 µM: 47%
11 | O=c1c(-c2ccc(O)cc2)coc2cc(OCNCc3cccc(C(F)(F)F)c3)ccc12 [PT-54, 3-(4-hydroxyphenyl)-7-[({[3-(trifluoromethyl)phenyl]methyl}amino)methoxy]chromen-4-one] | 5 | 
12 | O=c1c(-c2ccc(O)cc2)coc2cc(OCc3cc(-c4cc(C(F)(F)F)cc(C(F)(F)F)c4)on3)ccc12 [PT-62, 7-({5-[3,5-bis(trifluoromethyl)phenyl]isoxazol-3-yl}methoxy)-3-(4-hydroxyphenyl)chromen-4-one] | 72 | 
13 | N#Cc1ccc(-c2coc3cc(OCc4cc(-c5cccc(C(F)(F)F)c5)no4)ccc3c2=O)cc1 [PT-69, 4-[4-oxo-7-({3-[3-(trifluoromethyl)phenyl]isoxazol-5-yl}methoxy)chromen-3-yl]benzenecarbonitrile] | 180 | 
14 | NC(=O)c1ccc(-c2coc3cc(OCc4noc(-c5cc(F)cc(C(F)(F)F)c5)n4)ccc3c2=O)cc1 [PT-72, 4-[7-({5-[3-fluoro-5-(trifluoromethyl)phenyl](1,2,4-oxadiazol-3-yl)}methoxy)-4-oxochromen-3-yl]benzamide] |  | inhibition at 1 µM: 14%
15 | O=c1c(-c2cn[nH]c2)coc2cc(OCc3noc(-c4cc(F)cc(C(F)(F)F)c4)n3)ccc12 [PT-75, 7-({5-[3-fluoro-5-(trifluoromethyl)phenyl](1,2,4-oxadiazol-3-yl)}methoxy)-3-(5-hydropyrazol-4-yl)chromen-4-one] |  | hALDH2 inhibition (IC50 hALDH2 column): 14%
16 | O=c1c(-c2ccc(O)cc2)coc2cc(OCc3cnc(-c4ccc(C(F)(F)F)cc4)s3)ccc12 [PT-77, 3-(4-hydroxyphenyl)-7-({2-[4-(trifluoromethyl)phenyl](1,3-thiazol-5-yl)}methoxy)chromen-4-one] | 122 | 
17 | O=C(COc1ccc2c(=O)c(-c3ccc(O)cc3)coc2c1)c1cccc(F)c1 [PT-78, 7-[2-(3-fluorophenyl)-2-oxoethoxy]-3-(4-hydroxyphenyl)chromen-4-one] | 139 | 

Row | SMILES | IC50 [nM] | further results
18 | O=c1c(-c2ccc(O)cc2)coc2cc(OCc3nnc(-c4ccccc4Cl)o3)ccc12 [PT-80, 7-{[5-(2-chlorophenyl)(1,3,4-oxadiazol-2-yl)]methoxy}-3-(4-hydroxyphenyl)chromen-4-one] | 4 | 
19 | CS(=O)(=O)Nc1ccc(-c2coc3cc(OCc4cnc(-c5ccc(C(F)(F)F)cc5)s4)ccc3c2=O)cc1 [PT-83, 3-{4-[(methylsulfonyl)amino]phenyl}-7-({2-[4-(trifluoromethyl)phenyl](1,3-thiazol-5-yl)}methoxy)chromen-4-one] | 25 | 
20 | O=C(COc1ccc2c(=O)c(-c3ccc(O)cc3)coc2c1)c1ccccc1C(F)(F)F [PT-85, 3-(4-hydroxyphenyl)-7-{2-oxo-2-[2-(trifluoromethyl)phenyl]ethoxy}chromen-4-one] | 70 | 
21 | O=c1c(-c2ccc3[nH]ncc3c2)coc2cc(OCc3noc(-c4cc(F)cc(C(F)(F)F)c4)n3)ccc12 [PT-86, 3-(1H-indazol-5-yl)-7-({5-[5-fluoro-3-(trifluoromethyl)phenyl](1,2,4-oxadiazol-3-yl)}methoxy)chromen-4-one] |  | inhibition at 1 µM: 68%
22 | O=c1c(-c2ccc(OCc3ccccn3)cc2)coc2cc(OCc3ccccn3)ccc12 [PT-93, 7-(2-pyridylmethoxy)-3-[4-(2-pyridylmethoxy)phenyl]chromen-4-one] | 17 | 
23 | O=c1c(-c2ccc(O)cc2)coc2cc(OCc3cncc(C(F)(F)F)c3)ccc12 [PT-94, 3-(4-hydroxyphenyl)-7-{[5-(trifluoromethyl)(3-pyridyl)]methoxy}chromen-4-one] | 20 | 
24 | O=c1c(-c2ccc(O)cc2)coc2cc(OCc3cc(-c4ccc(Cl)cc4)on3)ccc12 [PT-95, 7-{[5-(4-chlorophenyl)isoxazol-3-yl]methoxy}-3-(4-hydroxyphenyl)chromen-4-one] |  | hALDH2 inhibition (IC50 hALDH2 column): 57%; inhibition at 1 µM: 57%
25 | O=c1c(-c2ccc(O)cc2)coc2cc(OCc3cc(-c4ccc(Cl)c(Cl)c4)on3)ccc12 [PT-96, 7-{[5-(3,4-dichlorophenyl)isoxazol-3-yl]methoxy}-3-(4-hydroxyphenyl)chromen-4-one] |  | inhibition at 1 µM: 47%
26 | O=c1c(-c2ccc(O)cc2)coc2cc(OCCNCc3cccc(C(F)(F)F)c3)ccc12 [PT-99, 3-(4-hydroxyphenyl)-7-[2-({[3-(trifluoromethyl)phenyl]methyl}amino)ethoxy]chromen-4-one] | 5 | 
27 | O=C(O)c1coc(COc2ccc3c(=O)c(-c4ccc(O)cc4)coc3c2)n1 [PT-102, 2-{[3-(4-hydroxyphenyl)-4-oxochromen-7-yloxy]methyl}-1,3-oxazole-4-carboxylic acid] | 16 | 
28 | O=c1c(-c2ccc(O)cc2)coc2cc(OCc3nnc(-c4cccnc4)o3)ccc12 [PT-110, 3-(4-hydroxyphenyl)-7-[(5-(3-pyridyl)(1,3,4-oxadiazol-2-yl))methoxy]chromen-4-one] | 7 | 
29 | O=c1c(-c2ccc(O)cc2)coc2cc(OCc3nc(-c4cccnc4)no3)ccc12 [PT-114, 3-(4-hydroxyphenyl)-7-[(3-(3-pyridyl)(1,2,4-oxadiazol-5-yl))methoxy]chromen-4-one] | 32 | 
30 | O=c1c(-c2ccc(O)cc2)coc2cc(OCc3nc(-c4cccc(C(F)(F)F)c4)no3)ccc12 [PT-115, 3-(4-hydroxyphenyl)-7-({3-[3-(trifluoromethyl)phenyl](1,2,4-oxadiazol-5-yl)}methoxy)chromen-4-one] | 38 | 
31 | CNC(=O)c1coc(COc2ccc3c(=O)c(-c4ccc(O)cc4)coc3c2)n1 [PT-118, (2-{[3-(4-hydroxyphenyl)-4-oxochromen-7-yloxy]methyl}(1,3-oxazol-4-yl))-N-methylcarboxamide] | 23 | 
32 | COc1ccc2c(COc3ccc4c(=O)c(-c5ccc(O)cc5)coc4c3)cc(=O)oc2c1 [PT-119, 4-{[3-(4-hydroxyphenyl)-4-oxochromen-7-yloxy]methyl}-7-methoxychromen-2-one] | 68 | 
33 | CS(=O)(=O)Nc1ccc(-c2coc3cc(OCc4nnc(-c5ccc(F)cc5)o4)ccc3c2=O)cc1 [PT-120, 7-{[5-(4-fluorophenyl)(1,3,4-oxadiazol-2-yl)]methoxy}-3-{4-[(methylsulfonyl)amino]-phenyl}chromen-4-one] | 276 | 
